From patent US9492436B2, “Azabenzimidazole derivatives” (Boehringer Ingelheim International GmbH, priority 2013, dated 2016) come the findings set out here.

Converted amounts (≈) assume the structure as drawn.

By EC50 is commonly meant the midpoint of the concentration-response curve. A word on the solubility: it is how much of the substance goes into solution per volume. Lower therefore signals a poorly soluble substance.

In data set [1] the target is T1, AMPK complex 1 (containing alpha1beta1gamma1) (Homo sapiens, UniProt Q13131+Q9Y478).
T1 construct: GST (Glutathion S transferase) (N); made in house; host or cells: baculovirus; virus made in Sf9, expression in High Five cells
Put plainly: In vitro AMPK activation assay (ADP-Glo Kinase Assay). The settings on record: 30 μM ATP, 1 μM peptide, 60 min, room temperature. The data set is classed as biochemical. An excerpt:
Activated AMPK complex 1 (containing alpha1beta1gamma1) was obtained from baculovirus expression system. The gene encoding AMPK alpha1 was cloned into the pACG2T vector (BD Biosciences) to obtain a N-terminal Glutathion S transferase (GST)-fusion protein. The genes encoding AMPK beta 1 and gamma1 were cloned into the p2Bac dual multiple cloning site vector (Invitrogen) with beta1 under the control of the p10 promoter and gamma1 under the control of the PH promoter. The transfer vectors containing AMPK were co-transfected individually with AcPNV BacMagic-3 DNA (EMD Millipore) in Sf9 cells and the recombinant baculoviruses were harvested after 5 days, followed by 3 rounds of amplification of the virus stock in Sf9 cells. AMPK (alpha1beta1gamma1) was expressed in High Five 5 cells by co-infection of recombinant alpha1 virus and recombinant beta1/gamma1 virus for 72 h at 27° C. Cells were harvested by centrifugation and lysed by 3 freeze/thaw cycles in PBS with 10% glycerol and protease inhibitor cocktail (Roche). After centrifugation AMPK a1b1g1 in the supernatant was captured by immobilized glutathione (GE Healthcare), impurities were washed away with PBS and AMPK alpha1beta1gamma1 was eluted with PBS containing 20 mM reduced gluthathione. The protein buffer was then exchanged to PBS with 10% glycerol and protein concentration was determined by UV absorbance.
The white 384-well Optiplates (cat.no. 6007299) were purchased from PerkinElmer. The V9101 ADP-Glo Kinase Assay and ultra pure ATP (V915A) was purchased from Promega. The substrate for AMPK (NH2-HMRSAMSGLHLVKRR_CONH2) was purchased from Upstate (12-355).
Compounds were tested in either serial dilutions or single dose concentrations. The serial compound dilutions were prepared in 100% DMSO automatically. The final DMSO concentration in the assay was 0.1%.
The Compound Stock Solutions were 10 mM in 100% DMSO. The compounds were solubilised at room temperature.
In the 384-well plates 1.25 ul of test compound in assay buffer was mixed with 1.25 ul of AMPK and 1.25 μl of the peptide (final concentration of 1 μM) and 1.25 μl of ATP (final concentration of 30 μM), both dissolved in assay buffer. This step was followed by an incubation time of 60 min. Then 5 μl of ADP Glo Reagent was added. This was followed by 40 min of incubation. Then 10 μl of Kinase Detection Reagent was admixed. The plates were sealed and after an incubation period of 30 min, the luminescence signal was measured in an Envision reader. All incubation steps were accomplished at room temperature.
Each assay microtiter plate contained wells with vehicle controls instead of compound (0.1% DMSO in water) as reference for the low signal (100% CTL, low signal), and wells with serial dilutions of AMP (final 30 μM) as reference for high signals.
The luminescence signal generated was proportional to the ADP concentration produced and was correlated with AMPK activity. The analysis of the data was performed by the calculation of the percentage of ATP consumption of AMPK in the presence of the test compound compared to the consumption of ATP in the presence of AMPK without compound. (RLU(sample)/RLU(low control))*100[RLU=relative luminescence units]
An activator of the AMPK enzyme gave values above 100% CTL.
EC50 values based on dose response curves are calculated with the XIFIT software using the 4 Parameter Logistic Model or Sigmoidal Dose-Response Model.
In general terms: ADP-Glo first removes unused ATP, then detects ADP through luciferase.

Data set [2] in a line: Aqueous solubility (buffer vs acetonitrile/water, 24 h shaking, LC-UV). The data set is classed as physicochemical. The following applies: kinetic from dmso stock, 2.5% DMSO, ">" = more than 90% dissolved. As to the method:
The aqueous solubility of the compounds of the invention is determined by comparing the amount dissolved in buffer to the amount in an acetonitrile/water (1/1) solution. Starting from a 10 mM DMSO stock solution aliquots are diluted with acetonitrile/water (1/1) or buffer resp. After 24 h of shaking, the solutions are filtrated and analyzed by LC-UV. The amount dissolved in buffer is compared to the amount in the acetonitrile solution.
Solubility is usually being measured from 0.001 to 0.125 mg/ml at a DMSO concentration of 2.5%. If more than 90% of the compound is dissolved in buffer, the value is marked with “>”.

T1 sequence (Q13131 whole entry): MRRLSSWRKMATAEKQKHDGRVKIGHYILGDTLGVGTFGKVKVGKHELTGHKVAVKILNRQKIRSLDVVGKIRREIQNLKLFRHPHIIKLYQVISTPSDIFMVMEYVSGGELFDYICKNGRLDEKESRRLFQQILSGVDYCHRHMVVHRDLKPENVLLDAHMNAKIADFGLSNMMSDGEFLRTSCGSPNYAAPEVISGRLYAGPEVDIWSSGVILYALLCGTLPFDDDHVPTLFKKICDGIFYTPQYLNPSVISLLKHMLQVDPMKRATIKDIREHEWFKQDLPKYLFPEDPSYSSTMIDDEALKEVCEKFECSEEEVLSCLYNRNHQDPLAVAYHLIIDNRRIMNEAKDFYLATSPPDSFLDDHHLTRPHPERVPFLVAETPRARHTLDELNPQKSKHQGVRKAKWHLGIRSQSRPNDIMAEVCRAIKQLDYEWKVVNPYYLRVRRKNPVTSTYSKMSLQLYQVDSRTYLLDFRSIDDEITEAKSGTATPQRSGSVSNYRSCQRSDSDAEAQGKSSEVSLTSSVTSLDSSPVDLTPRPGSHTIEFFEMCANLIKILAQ
T1 sequence (Q9Y478 whole entry): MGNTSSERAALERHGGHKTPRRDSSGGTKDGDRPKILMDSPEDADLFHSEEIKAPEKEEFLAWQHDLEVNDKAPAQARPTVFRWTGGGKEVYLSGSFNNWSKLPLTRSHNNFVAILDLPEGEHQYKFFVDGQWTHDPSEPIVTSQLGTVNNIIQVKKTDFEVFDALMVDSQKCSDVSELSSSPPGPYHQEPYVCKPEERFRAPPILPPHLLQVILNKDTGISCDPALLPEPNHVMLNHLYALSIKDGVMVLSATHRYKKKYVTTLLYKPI
T1 sequence (P54619 whole entry partner): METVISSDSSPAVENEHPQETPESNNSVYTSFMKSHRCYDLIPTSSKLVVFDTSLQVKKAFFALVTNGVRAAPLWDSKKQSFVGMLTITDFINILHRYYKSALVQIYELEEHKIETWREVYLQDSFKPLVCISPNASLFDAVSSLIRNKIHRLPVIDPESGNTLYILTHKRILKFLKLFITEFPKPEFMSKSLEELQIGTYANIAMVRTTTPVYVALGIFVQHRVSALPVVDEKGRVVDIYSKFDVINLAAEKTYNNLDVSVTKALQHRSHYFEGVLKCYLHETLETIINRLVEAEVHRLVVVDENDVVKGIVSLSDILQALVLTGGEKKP

Regarding `CN=S(C)(=O)c1ccc(-c2ccc(-c3nc4[nH]c(O[C@@H]5CO[C@H]6[C@@H]5OC[C@H]6O)nc4cc3Cl)cc2)nc1` (stereo partly drawn) [Example 28, (3R,3aR,6R,6aR)-6-(6-Chloro-5-(4-(5-(N,S-dimethylsulfonimidoyl)pyridin-2-yl)phenyl)-3H-imidazo[4,5-b]pyridin-2-yloxy)hexahydrofuro[3,2-b]furan-3-ol], the EC50 in data set [1] worked out at 2 nM. In addition, the solubility at 24 h in data set [2] (pH 2.2 buffer) was 92 µg/mL (≈ 170 µM); in data set [2] (pH 4.5 buffer), < 1 µg/mL; in data set [2] (pH 6.8 buffer) it was < 1 µg/mL.
Take `CS(C)(=O)=Nc1cnc(-c2ccc(-c3nc4[nH]c(O[C@@H]5CO[C@H]6[C@@H]5OC[C@H]6O)nc4cc3Cl)cc2)nc1` [Example 34, N-(2-{4-[6-Chloro-2-((3R,3aR,6R,6aR)-6-hydroxyhexahydrofuro[3,2-b]furan-3-yloxy)-3H-imidazo[4,5-b]pyridin-5-yl]-phenyl}-pyrimidin-5-yl)-S,S-dimethylsulfoximide]: it took 3 nM to reach a half-maximal effect in data set [1] (EC50). Moreover, the results for the solubility at 24 h in data set [2] (pH 2.2 buffer), in data set [2] (pH 4.5 buffer) and in data set [2] (pH 6.8 buffer) were 4 µg/mL (≈ 7.37 µM), 5 µg/mL (≈ 9.21 µM) and 13 µg/mL (≈ 23.9 µM), respectively.
Taken in the same sequence, the figures for `CS(C)(=O)=NCc1ccc(-c2ccc(-c3nc4[nH]c(O[C@@H]5CO[C@H]6[C@@H]5OC[C@H]6O)nc4cc3Cl)cc2)cn1` [Example 51, N-(5-{4-[6-Chloro-2-((3R,3aR,6R,6aR)-6-hydroxyhexahydrofuro[3,2-b]furan-3-yloxy)-3H-imidazo[4,5-b]pyridin-5-yl]-phenyl}-pyridin-2-ylmethyl)-S,S-dimethylsulfoximide] were 92 nM, > 146 µg/mL, 28 µg/mL (≈ 50.4 µM) and 2 µg/mL (≈ 3.6 µM).
`CS(C)(=O)=Nc1ccc(-c2ccc(-c3nc4[nH]c(O[C@@H]5CO[C@H]6[C@@H]5OC[C@H]6O)nc4cc3Cl)cc2)nn1` [Example 50, N-(6-{4-[6-Chloro-2-((3R,3aR,6R,6aR)-6-hydroxyhexahydrofuro[3,2-b]furan-3-yloxy)-3H-imidazo[4,5-b]pyridin-5-yl]-phenyl}-pyridazin-3-yl)-S,S-dimethylsulfoximide]: the EC50 in data set [1] was 304 nM. The figures for the solubility at 24 h in data set [2] (pH 2.2 buffer), in data set [2] (pH 4.5 buffer) and in data set [2] (pH 6.8 buffer) were > 128 µg/mL, > 117 µg/mL and 88 µg/mL (≈ 162 µM), respectively.
On the same counts, the results for `CS(=O)(=NC#N)c1ccc(-c2ccc(-c3nc4[nH]c(O[C@@H]5CO[C@H]6[C@@H]5OC[C@H]6O)nc4cc3Cl)cc2)cc1` (stereo partly drawn) [Example 7, S-(4′-(6-Chloro-2-((3R,3aR,6R,6aR)-6-hydroxyhexahydrofuro[3,2-b]furan-3-yloxy)-3H-imidazo[4,5-b]pyridin-5-yl)biphenyl-4-yl)-S-methyl-N-cyano-sulfoximide] are 1 nM, 15 µg/mL (≈ 27.2 µM), < 1 µg/mL and < 1 µg/mL.
On the same counts, the results for `CS(=N)(=O)Cc1ccc(-c2ccc(-c3nc4[nH]c(O[C@@H]5CO[C@H]6[C@@H]5OC[C@H]6O)nc4cc3Cl)cc2)cc1` (stereo partly drawn) [Example 52, (3R,3aR,6R,6aR)-6-(6-Chloro-5-(4′-(S-methylsulfonimidoylmethyl)biphenyl-4-yl)-3H-imidazo[4,5-b]pyridin-2-yloxy)hexahydrofuro[3,2-b]furan-3-ol] are 3 nM, 42 µg/mL (≈ 77.6 µM), < 1 µg/mL and < 1 µg/mL.
On the same counts, the results for `CS(C)(=O)=Nc1cc(-c2ccc(-c3nc4[nH]c(O[C@@H]5CO[C@H]6[C@@H]5OC[C@H]6O)nc4cc3Cl)cc2)ccn1` [Example 36, N-(4-{4-[6-Chloro-2-((3R,3aR,6R,6aR)-6-hydroxyhexahydrofuro[3,2-b]furan-3-yloxy)-3H-imidazo[4,5-b]pyridin-5-yl]-phenyl}-pyridin-2-yl)-S,S-dimethylsulfoximide] are 15 nM, 99 µg/mL (≈ 183 µM), < 1 µg/mL and < 1 µg/mL.
The compound `CS(=N)(=O)c1ccc(-c2ccc(-c3nc4[nH]c(O[C@@H]5CO[C@H]6[C@@H]5OC[C@H]6O)nc4cc3Cl)cc2)cc1` (stereo partly drawn) [Example 23, (3R,3aR,6R,6aR)-6-(6-Chloro-5-(4′-(S-methylsulfonimidoyl)biphenyl-4-yl)-3H-imidazo[4,5-b]pyridin-2-yloxy)hexahydrofuro[3,2-b]furan-3-ol] gave an EC50 in data set [1] of 10 nM. In addition, the solubility at 24 h in data set [2] (pH 2.2 buffer) was found to be 69 µg/mL (≈ 131 µM); in data set [2] (pH 4.5 buffer), 2 µg/mL (≈ 3.8 µM); in data set [2] (pH 6.8 buffer), 1 µg/mL (≈ 1.9 µM).
On the same counts, the results for `CS(C)(=O)=Nc1ccc(-c2ccc(-c3nc4[nH]c(O[C@@H]5CO[C@H]6[C@@H]5OC[C@H]6O)nc4cc3Cl)cc2)cn1` [Example 22, N-(5-(4-(6-Chloro-2-((3R,3aR,6R,6aR)-6-hydroxyhexahydrofuro[3,2-b]furan-3-yloxy)-3H-imidazo[4,5-b]pyridin-5-yl)phenyl)pyridin-2-yl)-S,S-dimethylsulfoximide] are 45 nM, < 80 µg/mL, > 7 µg/mL and < 1 µg/mL.
Compound `CS(C)(=O)=Nc1ccc2c(c1)CN(c1ccc(-c3nc4[nH]c(O[C@@H]5CO[C@H]6[C@@H]5OC[C@H]6O)nc4cc3Cl)cc1)C2` [Example 43, N-(2-{4-[6-Chloro-2-((3R,3aR,6R,6aR)-6-hydroxyhexahydrofuro[3,2-b]furan-3-yloxy)-3H-imidazo[4,5-b]pyridin-5-yl]-phenyl}-2,3-dihydro-1H-isoindol-5-yl)-S,S-dimethylsulfoximide] yielded an EC50 in data set [1] of 293 nM. That is a sub-micromolar value.
The compound `N=S1(=O)CCN(c2ccc(-c3nc4[nH]c(O[C@@H]5CO[C@H]6[C@@H]5OC[C@H]6O)nc4cc3Cl)cc2)CC1` [Example 4] showed an EC50 in data set [1] of 22 nM.
Compound `CS(C)(=O)=Nc1ccc(-c2ccc(-c3nc4[nH]c(O[C@@H]5CO[C@H]6[C@@H]5OC[C@H]6O)nc4cc3Cl)cn2)cc1` [Example 32, N-(4-{5-[6-Chloro-2-((3R,3aR,6R,6aR)-6-hydroxyhexahydrofuro[3,2-b]furan-3-yloxy)-3H-imidazo[4,5-b]pyridin-5-yl]-pyridin-2-yl}-phenyl)-S,S-dimethylsulfoximide] gave an EC50 in data set [1] of 13 nM.
Still for that read-out and setting: next, `CS(C)(=O)=Nc1cccc(-c2ccc(-c3nc4[nH]c(O[C@@H]5CO[C@H]6[C@@H]5OC[C@H]6O)nc4cc3Cl)cc2)c1` [Example 14, N-(4′-(6-Chloro-2-((3R,3aR,6R,6aR)-6-hydroxyhexahydrofuro[3,2-b]furan-3-yloxy)-3H-imidazo[4,5-b]pyridin-5-yl)biphenyl-3-yl)-S,S-dimethylsulfoximide]: 6 nM; `CS(C)(=N)=Nc1ccc(-c2nc3[nH]c(O[C@@H]4CO[C@H]5[C@@H]4OC[C@H]5O)nc3cc2Cl)cc1` [Example 56, N-(4-(6-Chloro-2-((3R,3aR,6R,6aR)-6-hydroxyhexahydrofuro[3,2-b]furan-3-yloxy)-3H-imidazo[4,5-b]pyridin-5-yl)phenyl)-S,S-dimethyl-sulfondiimine]: 41 nM.
